Reference: US20080280837A1, “Biologically Active Compounds with Anti-Angiogenic Properties” (priority 2004, published 2008)

Biological target: T1, Human SST5 somatostatin receptor (SSTR5) (Homo sapiens, UniProt P35346)
T1 construct: expressed in transfected cells; host or cells: HEK-293 EBNA
Assay: Filter plate assay for SST5 receptor, displacement of [125I]SST-14
Assay type: binding
Outline: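 HEK-293 EBNA membranes expressing human SST5 (5.5 μg) incubated 60 min at 25 °C with 4 nM [125I]SST-14 and compound in pH 7.5 Tris/EGTA/MgCl2/sucrose buffer. Bound radioactivity collected on PEI-coated glass fiber filters and counted; triplicate 1:5 dilution series from 125 μM, non-specific binding with excess cold ligand.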

T1 sequence (P35346 whole entry): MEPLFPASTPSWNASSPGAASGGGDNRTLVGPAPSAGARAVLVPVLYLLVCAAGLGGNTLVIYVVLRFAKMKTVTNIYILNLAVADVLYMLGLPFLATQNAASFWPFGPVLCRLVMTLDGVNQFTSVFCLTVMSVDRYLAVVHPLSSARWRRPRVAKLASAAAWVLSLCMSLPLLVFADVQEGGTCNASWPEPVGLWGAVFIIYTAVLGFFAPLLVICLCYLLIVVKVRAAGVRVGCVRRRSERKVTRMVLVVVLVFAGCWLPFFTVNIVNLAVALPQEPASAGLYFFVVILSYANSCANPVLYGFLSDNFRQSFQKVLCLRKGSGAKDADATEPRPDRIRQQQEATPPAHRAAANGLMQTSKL

Compound	SSTR5 Inhib 0.5 uM % (inhibition of binding of SST-14 to SSTR5)	SSTR5 Inhib 10 uM % (inhibition of binding of SST-14 to SSTR5)
CO[C@H]1[C@H](O)[C@@H](COCc2ccc(Cl)cc2)OC(OCc2ccc3ccccc3c2)[C@@H]1NC(=O)CCCN (some centres unmarked) [Compound 143]	35%	78%
COC[C@H]1OC(OCc2ccccc2)[C@H](NC(=O)CCCN)[C@@H](OCc2cccc(O)c2)[C@@H]1O (some centres unmarked) [Compound 144]	45%	78%
COC[C@H]1OC(OCCc2ccccc2)[C@H](NC(=O)CCCN)[C@@H](OCc2ccc(Cl)cc2)[C@@H]1O (some centres unmarked) [Compound 145]	45%	78%
COC[C@H]1OC(OCc2ccc3ccccc3c2)[C@H](NC(=O)CCCN)[C@@H](OCc2cccc(O)c2)[C@@H]1O (some centres unmarked) [Compound 146]	40%	77%
COC[C@H]1OC(OCCc2ccccc2)[C@H](NC(=O)CCCN)[C@@H](OCc2cccc(O)c2)[C@@H]1O (some centres unmarked) [Compound 147]	40%	77%
CSC1O[C@H](COCc2ccc(Cl)cc2)[C@@H](O)[C@@H](OCc2ccc3ccccc3c2)[C@H]1NC(=O)CNC(=N)N (some centres unmarked) [Compound 150]	42%	76%
COC[C@H]1OC(OCc2ccc3ccccc3c2)[C@H](NC(=O)CCNC(=N)N)[C@@H](OCc2ccc3ccccc3c2)[C@@H]1O (some centres unmarked) [Compound 151]	36%	76%
CSC1O[C@H](COCc2ccc(Cl)cc2)[C@@H](O)[C@@H](OCc2ccc3ccccc3c2)[C@H]1NC(=O)CCCN (some centres unmarked) [Compound 153]	34%	76%
COC[C@H]1OC(OCc2ccccc2)[C@H](NC(=O)CCCN)[C@H](OCc2ccccc2)[C@@H]1O (some centres unmarked) [Compound 154]	33%	76%
CSC1O[C@H](COCc2ccccc2)[C@@H](O)[C@@H](OCc2ccc3ccccc3c2)[C@H]1NC(=O)CCCN (some centres unmarked) [Compound 156]	25%	76%
CSC1O[C@H](COCc2ccc3ccccc3c2)[C@@H](O)[C@@H](OCc2ccc(Cl)cc2)[C@H]1NC(=O)CCN (some centres unmarked) [Compound 158]	36%	75%
COC[C@H]1OC(OCc2ccc(Cl)cc2)[C@H](NC(=O)CNC(=N)N)[C@H](OCc2ccc3ccccc3c2)[C@@H]1O (some centres unmarked) [Compound 159]	31%	75%
COC[C@H]1OC(OCc2ccccc2)[C@H](NC(=O)CNC(=N)N)[C@H](OCc2ccc3ccccc3c2)[C@@H]1O (some centres unmarked) [Compound 162]	30%	74%
COC[C@H]1OC(OCc2ccccc2)[C@H](NC(=O)CCN)[C@H](OCc2ccccc2)[C@@H]1O (some centres unmarked) [Compound 163]	34%	73%
COC[C@H]1OC(OCc2ccc(Cl)cc2)[C@H](NC(=O)CCCN)[C@@H](OCc2ccccc2)[C@@H]1O (some centres unmarked) [Compound 164]	39%	73%
COC[C@H]1OC(OCCc2ccccc2)[C@H](NC(=O)CCNC(=N)N)[C@@H](OCc2ccc(Cl)cc2)[C@@H]1O (some centres unmarked) [Compound 166]	36%	73%
CSC1O[C@H](COCc2ccc(Cl)cc2)[C@@H](O)[C@@H](OCc2ccc3ccccc3c2)[C@H]1NC(=O)CN (some centres unmarked) [Compound 167]	43%	73%
COC[C@H]1OC(OCCc2ccccc2)[C@H](NC(=O)CCCNC(=N)N)[C@@H](OCc2ccc(Cl)cc2)[C@@H]1O (some centres unmarked) [Compound 168]	47%	72%

Results, then the molecule that gave them:

SSTR5 Inhib 0.5 uM % (inhibition of binding of SST-14 to SSTR5)	SSTR5 Inhib 10 uM % (inhibition of binding of SST-14 to SSTR5)	Compound
38%	76%	CSC1O[C@H](COCc2ccc(-c3ccccc3)cc2)[C@@H](O)[C@@H](OCc2ccc(Cl)cc2)[C@H]1NC(=O)CCCN (some centres unmarked) [Compound 148]
35%	76%	CSC1O[C@H](COCc2ccccc2)[C@@H](O)[C@@H](OCc2ccc(-c3ccccc3)cc2)[C@H]1NC(=O)CNC(=N)N (some centres unmarked) [Compound 149]
47%	76%	CO[C@H]1[C@H](O)[C@@H](COCc2ccc(Cl)cc2)OC(OCc2ccc(Cl)cc2)[C@@H]1NC(=O)CCNC(=N)N (some centres unmarked) [Compound 152]
46%	76%	CSC1O[C@H](COCc2ccccc2)[C@@H](O)[C@@H](OCc2ccc(-c3ccccc3)cc2)[C@H]1NC(=O)CCCNC(=N)N (some centres unmarked) [Compound 155]
20%	75%	CO[C@H]1[C@H](O)[C@@H](COCc2ccc(-c3ccccc3)cc2)OC(OCc2ccc(-c3ccccc3)cc2)[C@@H]1NC(=O)CCCNC(=N)N (some centres unmarked) [Compound 157]
40%	74%	COC[C@H]1OC(OCc2ccc(Cl)cc2)[C@H](NC(=O)CCCNC(=N)N)[C@@H](OCc2ccc3ccccc3c2)[C@@H]1O (some centres unmarked) [Compound 160]
51%	74%	CO[C@H]1[C@H](O)[C@@H](COCc2ccc(-c3ccccc3)cc2)OC(OCc2ccc3ccccc3c2)[C@@H]1NC(=O)CCCN (some centres unmarked) [Compound 161]
37%	73%	COC[C@H]1OC(OCc2ccccc2)[C@H](NC(=O)CCCNC(=N)N)[C@@H](OCc2ccc(-c3ccccc3)cc2)[C@@H]1O (some centres unmarked) [Compound 165]
27%	72%	COC1C(O)C(COCc2ccc(-c3ccccc3)cc2)OC(OCc2ccc3ccccc3c2)C1NC(=O)CCNC(=N)N (centres unmarked) [Compound 169]
29%	72%	COC[C@H]1OC(OCc2ccc3ccccc3c2)[C@H](NC(=O)CCNC(=N)N)[C@@H](OCc2ccccc2)[C@@H]1O (some centres unmarked) [Compound 170]
44%	72%	COC1C(O)C(COCc2ccc(-c3ccccc3)cc2)OC(OCc2ccccc2)C1NC(=O)CCCNC(=N)N (centres unmarked) [Compound 171]
21%	72%	COC[C@H]1OC(OCc2ccccc2)[C@H](NC(=O)CCNC(=N)N)[C@@H](OCc2ccc(-c3ccccc3)cc2)[C@@H]1O (some centres unmarked) [Compound 172]
47%	71%	COC1C(O)C(COCc2ccc3ccccc3c2)OC(OCc2ccc(Cl)cc2)C1NC(=O)CNC(=N)N (centres unmarked) [Compound 173]
